Experimental data published in patent publication US20080280837A1, “Biologically Active Compounds with Anti-Angiogenic Properties” (priority 2004, published 2008).

Molecular target: T1, Human SST5 somatostatin receptor (SSTR5) (Homo sapiens, UniProt P35346)
T1 construct: expressed in transfected cells; host or cells: HEK-293 EBNA
Assay: Filter plate assay for SST5 receptor, displacement of [125I]SST-14
Format: binding
Summary of the method: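 HEK-293 EBNA membranes expressing human SST5 (5.5 μg) incubated 60 min at 25 °C with 4 nM [125I]SST-14 and compound in pH 7.5 Tris/EGTA/MgCl2/sucrose buffer. Bound radioactivity collected on PEI-coated glass fiber filters and counted; triplicate 1:5 dilution series from 125 μM, non-specific binding with excess cold ligand.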

T1 sequence (P35346 whole entry): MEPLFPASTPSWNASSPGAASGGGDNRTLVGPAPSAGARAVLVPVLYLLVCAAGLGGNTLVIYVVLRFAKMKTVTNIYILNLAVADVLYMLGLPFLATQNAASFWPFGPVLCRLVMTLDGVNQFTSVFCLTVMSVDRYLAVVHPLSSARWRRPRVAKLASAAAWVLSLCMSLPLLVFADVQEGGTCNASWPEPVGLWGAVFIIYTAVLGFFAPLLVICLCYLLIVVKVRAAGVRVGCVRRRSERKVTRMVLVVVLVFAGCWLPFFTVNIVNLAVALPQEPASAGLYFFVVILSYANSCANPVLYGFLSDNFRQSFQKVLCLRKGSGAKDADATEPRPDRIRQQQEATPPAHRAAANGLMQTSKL

Row | SMILES | SSTR5 Inhib 0.5 uM % (inhibition of binding of SST-14 to SSTR5) | SSTR5 Inhib 10 uM % (inhibition of binding of SST-14 to SSTR5)
1 | CSC1O[C@H](COCc2ccccc2)[C@@H](O)[C@@H](OCc2ccc(Cl)cc2)[C@H]1NC(=O)CCNC(=N)N (stereo partly shown) [Compound 118] | 37% | 81%
2 | COC[C@H]1OC(OCc2ccc(-c3ccccc3)cc2)[C@H](NC(=O)CCCN)[C@@H](OCc2ccc(Cl)cc2)[C@@H]1O (stereo partly shown) [Compound 74] | 64% | 89%
3 | COC[C@H]1OC(OCc2ccccc2)[C@H](NC(=O)CCNC(=N)N)[C@H](OCc2ccc3ccccc3c2)[C@@H]1O (stereo partly shown) [Compound 53] | 58% | 91%
4 | COC[C@H]1OC(OCc2ccc(-c3ccccc3)cc2)[C@H](NC(=O)CCCNC(=N)N)[C@@H](OCc2ccc(-c3ccccc3)cc2)[C@@H]1O (stereo partly shown) [Compound 55] | 71% | 91%
5 | NCCC(=O)N[C@H]1CO[C@H](COCc2ccc(-c3ccccc3)cc2)[C@@H](O)[C@H]1OCc1ccc(Cl)cc1 [Compound 124] | 50% | 80%
6 | CO[C@H]1[C@H](O)[C@@H](COCc2ccc3ccccc3c2)OC(OCc2ccc3ccccc3c2)[C@@H]1NC(=O)CNC(=N)N (stereo partly shown) [Compound 126] | 57% | 80%
7 | COC[C@H]1OC(OCc2ccc(Cl)cc2)[C@H](NC(=O)CCCN)[C@@H](OCc2ccccc2)[C@@H]1O (stereo partly shown) [Compound 164] | 39% | 73%
8 | COC[C@H]1OC(OCc2ccccc2)[C@H](NC(=O)CCNC(=N)N)[C@H](OCc2ccccc2)[C@@H]1O (stereo partly shown) [Compound 112] | 58% | 83%
9 | CSC1O[C@H](COCc2ccccc2)[C@@H](O)[C@@H](OCc2ccc3ccccc3c2)[C@H]1NC(=O)CNC(=N)N (stereo partly shown) [Compound 72] | 51% | 89%
10 | COC1C(O)C(COCc2ccc(-c3ccccc3)cc2)OC(OCc2ccc(-c3ccccc3)cc2)C1NC(=O)CCNC(=N)N (stereo not shown) [Compound 136] | 26% | 79%
11 | CSC1O[C@H](COCc2ccc(-c3ccccc3)cc2)[C@@H](O)[C@@H](OCc2ccc3ccccc3c2)[C@H]1NC(=O)CCN (stereo partly shown) [Compound 66] | 61% | 89%
12 | COC[C@H]1OC(OCc2ccc3ccccc3c2)[C@H](NC(=O)CCNC(=N)N)[C@@H](OCc2ccc3ccccc3c2)[C@@H]1O (stereo partly shown) [Compound 151] | 36% | 76%
13 | COC[C@H]1OC(OCCc2ccccc2)[C@H](NC(=O)CCCN)[C@@H](OCc2ccc3ccccc3c2)[C@@H]1O (stereo partly shown) [Compound 44] | 78% | 94%
14 | COC[C@H]1OC(OCc2ccc(Cl)cc2)[C@H](NC(=O)CCN)[C@H](OCc2ccc(Cl)cc2)[C@@H]1O (stereo partly shown) [Compound 39] | 74% | 95%
15 | COC1C(O)C(COCc2ccc3ccccc3c2)OC(OCc2ccc(Cl)cc2)C1NC(=O)CNC(=N)N (stereo not shown) [Compound 173] | 47% | 71%
16 | CO[C@@H]1[C@H](O)[C@@H](COCc2ccc3ccccc3c2)OC(OCc2ccc(Cl)cc2)[C@@H]1NC(=O)C1CCCN(C(=N)N)C1 (stereo partly shown) [Compound 69] | 67% | 89%
17 | COC[C@H]1OC(OCc2ccc3ccccc3c2)[C@H](NC(=O)CCN)[C@H](OCc2ccccc2)[C@@H]1O (stereo partly shown) [Compound 21] | 81% | 97%
